In PMC12406203 (Journal of Medicinal Chemistry, 2025):

Key:
Test in all cases: KINOMEscan
Assay type in all cases: binding
CSNK1G2 = target: T1, CSNK1G2 (Homo sapiens, UniProt P78368)
T1 construct: purchased Eurofins DiscoverX, LLC; host or cells: E. coli (T7 phage) or HEK-293

CDK2 = target: T2, CDK2 (Homo sapiens, UniProt P24941)
T2 construct: purchased Eurofins DiscoverX, LLC; host or cells: E. coli BL21-derived (T7 phage) or HEK-293

PDGFRA = target: T3, PDGFRA (Homo sapiens, UniProt P16234)
T3 construct: purchased Eurofins DiscoverX, LLC; host or cells: E. coli BL21-derived host (T7 phage) or HEK-293
T3 sequence (P16234 24-1089): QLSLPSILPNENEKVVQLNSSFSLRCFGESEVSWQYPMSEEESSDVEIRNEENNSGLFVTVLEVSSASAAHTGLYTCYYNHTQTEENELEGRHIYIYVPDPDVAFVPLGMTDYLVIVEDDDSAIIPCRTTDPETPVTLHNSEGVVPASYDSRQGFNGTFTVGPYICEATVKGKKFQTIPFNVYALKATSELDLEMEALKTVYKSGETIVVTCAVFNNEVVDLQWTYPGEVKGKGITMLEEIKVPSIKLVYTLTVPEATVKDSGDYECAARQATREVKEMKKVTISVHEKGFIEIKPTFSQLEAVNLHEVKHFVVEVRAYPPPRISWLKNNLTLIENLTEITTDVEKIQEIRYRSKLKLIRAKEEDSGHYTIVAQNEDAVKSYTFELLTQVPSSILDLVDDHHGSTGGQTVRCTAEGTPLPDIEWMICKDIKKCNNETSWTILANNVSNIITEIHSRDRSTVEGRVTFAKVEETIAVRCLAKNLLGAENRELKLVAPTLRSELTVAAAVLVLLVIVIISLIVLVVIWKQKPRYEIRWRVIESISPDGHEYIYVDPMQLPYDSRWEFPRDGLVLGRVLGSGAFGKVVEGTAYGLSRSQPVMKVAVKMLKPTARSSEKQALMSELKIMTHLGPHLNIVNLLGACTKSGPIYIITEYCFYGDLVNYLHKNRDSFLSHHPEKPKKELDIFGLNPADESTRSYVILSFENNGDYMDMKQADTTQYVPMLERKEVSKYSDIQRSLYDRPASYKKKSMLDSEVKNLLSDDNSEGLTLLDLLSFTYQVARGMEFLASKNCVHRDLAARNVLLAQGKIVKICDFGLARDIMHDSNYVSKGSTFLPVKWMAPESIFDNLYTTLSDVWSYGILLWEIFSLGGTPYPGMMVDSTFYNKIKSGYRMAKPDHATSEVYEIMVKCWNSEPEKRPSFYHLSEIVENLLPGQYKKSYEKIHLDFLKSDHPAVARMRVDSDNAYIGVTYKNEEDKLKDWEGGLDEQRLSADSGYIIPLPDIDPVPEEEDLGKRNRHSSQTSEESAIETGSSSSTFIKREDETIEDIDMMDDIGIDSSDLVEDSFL

GSK3B = target: T4, GSK3B (Homo sapiens, UniProt P49841)
T4 construct: purchased Eurofins DiscoverX, LLC; host or cells: E. coli (T7 phage) or HEK-293

AKT1 = target: T5, AKT1 (Homo sapiens, UniProt P31749)
T5 construct: purchased Eurofins DiscoverX, LLC; host or cells: E. coli BL21-derived (T7 phage) or HEK-293

PLK4 = target: T6, PLK4 (Homo sapiens, UniProt O00444)
T6 construct: purchased Eurofins DiscoverX, LLC; host or cells: E. coli BL21-derived host (T7 phage) or HEK-293
T6 sequence (O00444 1-970): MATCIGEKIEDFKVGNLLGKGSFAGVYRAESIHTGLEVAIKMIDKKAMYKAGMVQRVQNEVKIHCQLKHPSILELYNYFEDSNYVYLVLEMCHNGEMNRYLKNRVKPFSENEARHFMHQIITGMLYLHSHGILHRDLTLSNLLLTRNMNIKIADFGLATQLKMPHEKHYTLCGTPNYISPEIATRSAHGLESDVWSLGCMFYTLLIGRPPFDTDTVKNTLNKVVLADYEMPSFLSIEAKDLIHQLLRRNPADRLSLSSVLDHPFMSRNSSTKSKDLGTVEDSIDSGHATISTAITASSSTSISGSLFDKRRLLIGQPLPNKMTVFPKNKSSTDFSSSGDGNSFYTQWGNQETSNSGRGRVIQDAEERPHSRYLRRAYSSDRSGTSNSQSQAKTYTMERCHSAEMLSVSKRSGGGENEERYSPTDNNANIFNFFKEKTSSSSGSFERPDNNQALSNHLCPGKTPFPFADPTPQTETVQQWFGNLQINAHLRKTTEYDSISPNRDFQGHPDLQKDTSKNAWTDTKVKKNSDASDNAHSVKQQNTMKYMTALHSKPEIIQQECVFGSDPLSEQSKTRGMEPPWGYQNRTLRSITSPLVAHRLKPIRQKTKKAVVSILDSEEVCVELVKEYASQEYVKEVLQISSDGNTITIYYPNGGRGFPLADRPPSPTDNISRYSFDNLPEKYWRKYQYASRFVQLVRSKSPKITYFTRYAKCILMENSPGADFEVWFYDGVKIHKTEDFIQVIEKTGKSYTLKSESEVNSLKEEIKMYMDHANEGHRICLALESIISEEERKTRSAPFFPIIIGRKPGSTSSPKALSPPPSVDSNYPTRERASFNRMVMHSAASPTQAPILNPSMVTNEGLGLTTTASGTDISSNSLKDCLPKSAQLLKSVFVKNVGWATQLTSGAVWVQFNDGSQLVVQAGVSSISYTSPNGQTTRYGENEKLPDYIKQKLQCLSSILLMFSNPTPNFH

[1] = target: T7, RSK2 (Kin.Dom.1-N-terminal) (Homo sapiens, UniProt P51812)
T7 construct: RSK2 (Kin.Dom.1-; purchased Eurofins DiscoverX, LLC; host or cells: E. coli BL21-derived host (T7 phage) or HEK-293
T7 sequence (P51812 68-327 limits assumed): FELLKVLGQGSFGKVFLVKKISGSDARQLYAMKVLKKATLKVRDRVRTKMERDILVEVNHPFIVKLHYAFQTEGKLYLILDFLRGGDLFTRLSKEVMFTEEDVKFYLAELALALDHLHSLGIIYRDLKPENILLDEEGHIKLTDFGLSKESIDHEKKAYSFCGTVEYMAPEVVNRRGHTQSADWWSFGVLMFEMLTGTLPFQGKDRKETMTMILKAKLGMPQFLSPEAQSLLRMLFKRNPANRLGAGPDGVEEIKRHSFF

TIE2 = target: T8, TIE2 (Homo sapiens, UniProt Q02763)
T8 construct: purchased Eurofins DiscoverX, LLC; host or cells: E. coli BL21-derived host (T7 phage) or HEK-293
T8 sequence (Q02763 23-1124): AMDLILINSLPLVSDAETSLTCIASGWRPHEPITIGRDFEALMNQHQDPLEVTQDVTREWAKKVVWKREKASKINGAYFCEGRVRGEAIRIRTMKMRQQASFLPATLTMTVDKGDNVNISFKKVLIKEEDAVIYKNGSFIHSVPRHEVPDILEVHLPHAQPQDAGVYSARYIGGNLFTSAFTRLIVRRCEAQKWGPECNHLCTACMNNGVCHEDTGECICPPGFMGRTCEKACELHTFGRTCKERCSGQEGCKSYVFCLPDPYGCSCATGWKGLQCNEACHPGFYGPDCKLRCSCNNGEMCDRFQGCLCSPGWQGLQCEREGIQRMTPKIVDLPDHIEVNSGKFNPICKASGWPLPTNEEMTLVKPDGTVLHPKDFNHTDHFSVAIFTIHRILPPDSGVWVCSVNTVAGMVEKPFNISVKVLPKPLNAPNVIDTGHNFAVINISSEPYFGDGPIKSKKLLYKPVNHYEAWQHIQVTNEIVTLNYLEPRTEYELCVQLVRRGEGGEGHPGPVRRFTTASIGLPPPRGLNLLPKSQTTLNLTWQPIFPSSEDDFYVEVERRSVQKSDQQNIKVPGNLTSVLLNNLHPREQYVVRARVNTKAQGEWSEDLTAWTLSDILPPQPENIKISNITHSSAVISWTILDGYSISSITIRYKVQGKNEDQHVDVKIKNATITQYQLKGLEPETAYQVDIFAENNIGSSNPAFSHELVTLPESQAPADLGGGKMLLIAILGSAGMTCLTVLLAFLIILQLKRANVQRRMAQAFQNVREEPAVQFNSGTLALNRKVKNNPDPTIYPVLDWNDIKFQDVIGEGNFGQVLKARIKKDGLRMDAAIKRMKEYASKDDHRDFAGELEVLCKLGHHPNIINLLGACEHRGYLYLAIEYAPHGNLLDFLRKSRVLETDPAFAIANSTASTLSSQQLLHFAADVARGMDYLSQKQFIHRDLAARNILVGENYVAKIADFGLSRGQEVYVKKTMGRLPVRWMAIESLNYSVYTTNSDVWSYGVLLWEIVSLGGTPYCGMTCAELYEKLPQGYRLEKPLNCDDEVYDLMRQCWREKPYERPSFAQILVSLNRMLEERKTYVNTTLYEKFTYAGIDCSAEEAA

MEK1 = target: T9, MEK1 (Homo sapiens, UniProt Q02750)
T9 construct: purchased Eurofins DiscoverX, LLC; host or cells: E. coli (BL21-derived, T7 phage) or HEK-293
T9 sequence (Q02750 whole entry): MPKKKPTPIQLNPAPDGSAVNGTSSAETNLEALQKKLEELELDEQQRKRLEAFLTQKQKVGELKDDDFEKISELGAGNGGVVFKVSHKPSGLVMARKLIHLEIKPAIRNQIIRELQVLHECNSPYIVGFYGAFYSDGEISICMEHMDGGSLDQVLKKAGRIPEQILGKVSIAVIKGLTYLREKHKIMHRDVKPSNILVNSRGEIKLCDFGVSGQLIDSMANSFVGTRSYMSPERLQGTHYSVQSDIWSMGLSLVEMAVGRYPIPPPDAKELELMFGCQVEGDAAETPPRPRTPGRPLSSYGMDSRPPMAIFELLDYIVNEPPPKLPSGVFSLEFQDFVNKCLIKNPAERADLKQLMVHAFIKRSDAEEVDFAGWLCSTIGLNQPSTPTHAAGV

IGF1R = target: T10, IGF1R (Homo sapiens, UniProt P08069)
T10 construct: purchased Eurofins DiscoverX, LLC; host or cells: E. coli (T7 phage) or HEK-293
T10 sequence (P08069 31-1367): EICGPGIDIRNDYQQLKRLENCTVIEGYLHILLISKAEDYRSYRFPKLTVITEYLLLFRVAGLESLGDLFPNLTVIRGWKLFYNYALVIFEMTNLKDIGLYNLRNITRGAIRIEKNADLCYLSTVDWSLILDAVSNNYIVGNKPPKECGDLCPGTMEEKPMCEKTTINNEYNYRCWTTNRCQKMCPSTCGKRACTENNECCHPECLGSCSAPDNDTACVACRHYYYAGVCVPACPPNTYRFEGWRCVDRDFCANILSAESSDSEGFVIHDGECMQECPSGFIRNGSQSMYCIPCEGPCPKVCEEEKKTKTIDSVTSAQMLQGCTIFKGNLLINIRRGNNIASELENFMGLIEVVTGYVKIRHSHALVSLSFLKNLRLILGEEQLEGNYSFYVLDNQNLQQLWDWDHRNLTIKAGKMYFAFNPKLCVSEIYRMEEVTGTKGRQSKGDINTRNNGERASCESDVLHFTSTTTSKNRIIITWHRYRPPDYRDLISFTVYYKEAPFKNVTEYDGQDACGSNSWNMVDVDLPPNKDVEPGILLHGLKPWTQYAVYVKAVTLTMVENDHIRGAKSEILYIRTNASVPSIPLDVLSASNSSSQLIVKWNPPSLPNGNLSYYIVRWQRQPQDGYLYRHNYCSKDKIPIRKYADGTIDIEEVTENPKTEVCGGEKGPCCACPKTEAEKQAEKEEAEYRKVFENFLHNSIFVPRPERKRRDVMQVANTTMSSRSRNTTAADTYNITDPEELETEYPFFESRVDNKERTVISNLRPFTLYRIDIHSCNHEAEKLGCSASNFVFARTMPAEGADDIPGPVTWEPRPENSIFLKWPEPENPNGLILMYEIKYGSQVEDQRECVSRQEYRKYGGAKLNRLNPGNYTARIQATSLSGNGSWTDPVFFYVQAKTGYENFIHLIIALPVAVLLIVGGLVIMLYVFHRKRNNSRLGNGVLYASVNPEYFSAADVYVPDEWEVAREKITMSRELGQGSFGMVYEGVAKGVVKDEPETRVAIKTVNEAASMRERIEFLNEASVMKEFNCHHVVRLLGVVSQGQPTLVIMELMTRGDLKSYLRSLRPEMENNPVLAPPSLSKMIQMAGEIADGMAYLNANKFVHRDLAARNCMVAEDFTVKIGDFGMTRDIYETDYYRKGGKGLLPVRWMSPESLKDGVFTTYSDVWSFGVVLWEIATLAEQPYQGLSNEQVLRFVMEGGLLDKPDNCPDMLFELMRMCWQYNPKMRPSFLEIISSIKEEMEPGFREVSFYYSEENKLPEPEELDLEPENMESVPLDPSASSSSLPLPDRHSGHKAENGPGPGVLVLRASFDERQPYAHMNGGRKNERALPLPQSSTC

ROCK2 = target: T11, ROCK2 (Homo sapiens, UniProt O75116)
T11 construct: purchased Eurofins DiscoverX, LLC; host or cells: E. coli BL21-derived host (T7 phage) or HEK-293

ERK 2 = target: T12, ERK 2 (Homo sapiens, UniProt P28482)
T12 construct: purchased Eurofins DiscoverX, LLC; host or cells: E. coli (T7 phage) or HEK-293
T12 sequence (P28482 whole entry): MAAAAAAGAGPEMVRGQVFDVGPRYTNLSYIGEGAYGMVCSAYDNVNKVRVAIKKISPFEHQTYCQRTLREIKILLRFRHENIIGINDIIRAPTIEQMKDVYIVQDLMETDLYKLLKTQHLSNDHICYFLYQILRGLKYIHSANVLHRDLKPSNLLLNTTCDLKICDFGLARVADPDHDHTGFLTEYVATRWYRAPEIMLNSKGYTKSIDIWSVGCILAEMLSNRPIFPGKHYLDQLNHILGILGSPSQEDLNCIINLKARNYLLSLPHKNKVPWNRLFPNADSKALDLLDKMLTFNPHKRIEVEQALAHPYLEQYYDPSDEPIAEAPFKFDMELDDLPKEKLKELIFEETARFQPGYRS

T1 sequence (P78368 whole entry): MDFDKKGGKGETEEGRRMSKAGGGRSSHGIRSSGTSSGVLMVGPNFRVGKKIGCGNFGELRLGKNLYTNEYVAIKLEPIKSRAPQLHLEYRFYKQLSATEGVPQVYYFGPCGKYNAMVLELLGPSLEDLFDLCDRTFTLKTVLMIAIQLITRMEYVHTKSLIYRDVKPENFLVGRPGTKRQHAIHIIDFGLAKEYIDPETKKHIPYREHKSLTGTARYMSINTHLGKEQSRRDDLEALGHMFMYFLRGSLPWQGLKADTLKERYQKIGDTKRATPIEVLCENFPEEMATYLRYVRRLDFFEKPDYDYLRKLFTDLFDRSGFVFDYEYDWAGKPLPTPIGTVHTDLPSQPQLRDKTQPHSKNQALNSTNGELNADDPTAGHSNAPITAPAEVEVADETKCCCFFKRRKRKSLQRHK

SMILES: CN(C)CCNC(=O)c1cc2c(cnn2CC2CCCCC2)cc1Cc1ccc(F)cc1F [Compound 95, 1-(Cyclohexylmethyl)-5-(2,4-difluorobenzyl)-N-(2-(dimethylamino)ethyl)-1H-indazole-6-carboxamide]
- RA @ 1000nM (CSNK1G2): 100%
- RA @ 10000nM (CSNK1G2): 98%
- RA @ 1000nM (CDK2): 99%
- RA @ 10000nM (CDK2): 100%
- RA @ 1000nM (PDGFRA): 92%
- RA @ 10000nM (PDGFRA): 92%
- RA @ 1000nM (GSK3B): 100%
- RA @ 10000nM (GSK3B): 80%
- RA @ 1000nM (AKT1): 100%
- RA @ 10000nM (AKT1): 100%
- RA @ 1000nM (PLK4): 100%
- RA @ 10000nM (PLK4): 100%
- RA @ 1000nM [1]: 94%
- RA @ 10000nM [1]: 94%
- RA @ 1000nM (TIE2): 90%
- RA @ 10000nM (TIE2): 100%
- RA @ 1000nM (MEK1): 98%
- RA @ 10000nM (MEK1): 100%
- RA @ 1000nM (IGF1R): 100%
- RA @ 10000nM (IGF1R): 93%
- RA @ 1000nM (ROCK2): 83%
- RA @ 10000nM (ROCK2): 100%
- RA @ 1000nM (ERK 2): 100%
- RA @ 10000nM (ERK 2): 100%

SMILES: CC(C)Cn1ncc2cc(Cc3ccc(F)cc3F)c(C(=O)NCCN(C)C)cc21 [Compound 94, 5-(2,4-Difluorobenzyl)-N-(2-(dimethylamino)ethyl)-1-isobutyl-1H-indazole-6-carboxamide]
- RA @ 1000nM (CSNK1G2): 96%
- RA @ 10000nM (CSNK1G2): 93%
- RA @ 1000nM (CDK2): 82%
- RA @ 10000nM (CDK2): 97%
- RA @ 1000nM (PDGFRA): 96%
- RA @ 10000nM (PDGFRA): 76%
- RA @ 1000nM (GSK3B): 91%
- RA @ 10000nM (GSK3B): 97%
- RA @ 1000nM (AKT1): 100%
- RA @ 10000nM (AKT1): 75%
- RA @ 1000nM (PLK4): 100%
- RA @ 10000nM (PLK4): 100%
- RA @ 1000nM [1]: 86%
- RA @ 10000nM [1]: 65%
- RA @ 1000nM (TIE2): 100%
- RA @ 10000nM (TIE2): 100%
- RA @ 1000nM (MEK1): 98%
- RA @ 10000nM (MEK1): 74%
- RA @ 1000nM (IGF1R): 94%
- RA @ 10000nM (IGF1R): 84%
- RA @ 1000nM (ROCK2): 87%
- RA @ 10000nM (ROCK2): 96%
- RA @ 1000nM (ERK 2): 100%
- RA @ 10000nM (ERK 2): 98%
